Laboratory results: US8829011B2 (Janssen Pharmaceutica NV, priority 2008, dated 2014)
Counter-ions that a name gives are not always drawn.

Key:
[1] = biological target: T1, human recombinant 5-HT2A receptor (Homo sapiens, UniProt P28223); assay: Affinity for 5-HT2A receptor binding sites (competitive radioligand binding, [3H]ketanserin); settings: membranes of NIH3T3 with h5-HT2A, * = tested as hydrochloride salt
T1 construct: expressed in transfected cells; host or cells: NIH3T3
Procedure: (§1) Stock drug solutions (10 mM) were prepared in DMSO (the final assay concentration of DMSO not exceeding 0.4%). Drug dilutions were prepared in assay buffer.
(§2) Sigmoidal inhibition curves were generated and fitted by nonlinear regression analysis (GraphPad Prism).
(§3) 2. Affinity for 5HT2 Receptor Binding Sites
(§4) Receptor binding was performed using the human recombinant 5-HT2A (GB: X57830), 5-HT2B (GB: Z36748) and 5-HT2C (GB: M81778) receptors. The affinity of the compounds for the 3 different human 5-HT2 receptor subtypes was evaluated by competitive radioligand binding assays using [^3H]ketanserin (h5-HT2A) or [^3H]mesulergine (h5-HT2B and h5-HT2C). The assays were performed on membranes prepared from NIH3T3 stably transfected with h5-HT2A or CHO stably transfected with h5-HT2B and h5-HT2C.

[2] = biological target: T2, human recombinant 5-HT2B receptor (Homo sapiens, UniProt P41595); assay: Affinity for 5-HT2B receptor binding sites (competitive radioligand binding, [3H]mesulergine); settings: membranes of CHO with h5-HT2B, * = tested as hydrochloride salt
T2 construct: expressed in transfected cells; host or cells: CHO
Procedure: as §1, §2, §3, §4

rat 5-HT7a receptor = biological target: T3, rat 5-HT7a receptor (Rattus norvegicus, UniProt P32305); assay: Affinity for 5-HT7 receptor binding sites (competition radioligand binding, [3H]5-CT); settings: membranes of HEK-293 cells with rat 5-HT7a; 1 nM [3H]5-CT; * = tested as hydrochloride salt
T3 construct: expressed in transfected cells; host or cells: HEK-293
Procedure: as §1, §2
1. Affinity for 5-HT7 Receptor Binding Sites
The affinity of the compounds described in this invention for the 5-HT7 receptor binding site was evaluated by single competition radioligand binding assay. The assay was performed on membranes prepared from HEK-293 cells that had been subjected to stable transfection with the rat 5-HT7a receptor (GB: NM022938). Cells were scraped from the culture plates, suspended in Tris-HCl 50 mM pH 7.5 and collected through centrifugation (1000 rpm for 5 min). The cell pellets were homogenized (Polytron, 15 s, setting 5) in 50 mM Tris-HCl (pH 7.5), 5 mM EDTA. Following centrifugation (15,000 rpm for 25 min), membranes (135 μg protein/mL) were resuspended in the same buffer and incubated for 60 min at RT with 1 nM [^3H]5-CT in the presence of increasing concentration of test compounds. Nonspecific binding was defined in the presence of 10 μM 5-HT. Incubation was stopped by rapid filtration using the cell harvester (Packard). Radioactivity was counted in a TopCount-NXT (Packard). Experiments were conducted in triplicate.

[3] = biological target: T4, human recombinant 5-HT2C receptor (Homo sapiens, UniProt P28335); assay: Affinity for 5-HT2C receptor binding sites (competitive radioligand binding, [3H]mesulergine); settings: membranes of CHO with h5-HT2C, * = tested as hydrochloride salt
T4 construct: expressed in transfected cells; host or cells: CHO
T4 sequence (P28335 33-458): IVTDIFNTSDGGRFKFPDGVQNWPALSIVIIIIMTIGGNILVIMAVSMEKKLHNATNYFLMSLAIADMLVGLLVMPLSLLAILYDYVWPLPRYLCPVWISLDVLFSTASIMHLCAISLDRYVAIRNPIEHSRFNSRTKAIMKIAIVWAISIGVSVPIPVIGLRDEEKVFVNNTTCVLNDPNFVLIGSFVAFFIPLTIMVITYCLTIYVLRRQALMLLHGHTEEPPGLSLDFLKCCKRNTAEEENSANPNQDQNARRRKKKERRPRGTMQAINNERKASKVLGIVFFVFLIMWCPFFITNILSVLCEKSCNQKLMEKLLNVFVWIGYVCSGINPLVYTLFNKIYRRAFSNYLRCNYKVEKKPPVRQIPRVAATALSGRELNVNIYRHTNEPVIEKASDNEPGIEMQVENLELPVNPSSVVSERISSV
Procedure: as §1, §2, §3, §4

[4] = biological target: T5, human recombinant 5-HT6 receptor (Homo sapiens, UniProt P50406); assay: Affinity for 5-HT6 receptor binding sites (competitive radioligand binding, [3H]LSD); settings: membranes of HEK-293 with h5-HT6, * = tested as hydrochloride salt
T5 construct: expressed in transfected cells; host or cells: HEK-293
Procedure: as §1, §2
3. Affinity for 5-HT6 Receptor Binding Sites
Receptor binding was performed using the human recombinant 5-HT6 (GB: BC0794995) receptor. The affinity of the compounds for the human 5-HT6 receptor was evaluated by competitive radioligand binding assays using [^3H]LSD. The assays were performed on membranes prepared from HEK-293 stably transfected with h5-HT6. Non-specific binding was estimated in the presence of 1 μM clozapine.

T1 sequence (P28223 whole entry): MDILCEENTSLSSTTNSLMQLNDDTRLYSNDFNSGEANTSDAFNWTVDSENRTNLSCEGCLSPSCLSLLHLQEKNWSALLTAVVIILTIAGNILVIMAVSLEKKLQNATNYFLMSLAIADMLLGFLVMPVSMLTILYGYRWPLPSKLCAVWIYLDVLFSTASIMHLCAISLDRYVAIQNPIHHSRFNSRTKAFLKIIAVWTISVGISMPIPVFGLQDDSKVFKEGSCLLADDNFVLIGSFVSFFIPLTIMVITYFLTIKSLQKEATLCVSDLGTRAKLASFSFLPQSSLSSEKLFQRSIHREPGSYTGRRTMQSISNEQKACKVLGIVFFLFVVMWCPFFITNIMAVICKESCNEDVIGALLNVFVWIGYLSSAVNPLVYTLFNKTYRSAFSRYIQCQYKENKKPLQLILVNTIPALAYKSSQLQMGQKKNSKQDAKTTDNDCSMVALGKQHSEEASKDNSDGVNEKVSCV
T3 sequence (P32305 whole entry): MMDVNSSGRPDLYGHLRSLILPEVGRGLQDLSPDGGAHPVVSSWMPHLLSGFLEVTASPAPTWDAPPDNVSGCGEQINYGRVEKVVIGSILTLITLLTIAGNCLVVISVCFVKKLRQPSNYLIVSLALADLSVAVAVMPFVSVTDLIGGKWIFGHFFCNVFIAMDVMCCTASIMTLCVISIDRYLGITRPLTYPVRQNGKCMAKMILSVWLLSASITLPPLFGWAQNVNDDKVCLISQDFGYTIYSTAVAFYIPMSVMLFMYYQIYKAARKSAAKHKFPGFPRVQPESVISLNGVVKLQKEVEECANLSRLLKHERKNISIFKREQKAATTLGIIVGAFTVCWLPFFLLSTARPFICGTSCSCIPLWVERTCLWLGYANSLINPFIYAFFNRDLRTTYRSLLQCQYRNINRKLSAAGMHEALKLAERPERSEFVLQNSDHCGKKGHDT
T2 sequence (P41595 whole entry): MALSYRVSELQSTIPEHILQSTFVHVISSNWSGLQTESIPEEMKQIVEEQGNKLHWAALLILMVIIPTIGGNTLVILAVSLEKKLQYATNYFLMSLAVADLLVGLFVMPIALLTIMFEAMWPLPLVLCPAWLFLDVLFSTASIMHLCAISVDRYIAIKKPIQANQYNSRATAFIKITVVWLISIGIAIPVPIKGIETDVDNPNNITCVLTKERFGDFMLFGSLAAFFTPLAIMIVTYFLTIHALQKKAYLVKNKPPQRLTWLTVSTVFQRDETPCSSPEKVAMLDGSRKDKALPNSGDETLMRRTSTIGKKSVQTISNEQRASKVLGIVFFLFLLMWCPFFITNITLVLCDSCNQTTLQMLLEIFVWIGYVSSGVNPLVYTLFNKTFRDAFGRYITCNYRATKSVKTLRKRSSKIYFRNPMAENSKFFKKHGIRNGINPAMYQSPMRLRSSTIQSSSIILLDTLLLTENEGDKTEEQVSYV
T5 sequence (P50406 whole entry): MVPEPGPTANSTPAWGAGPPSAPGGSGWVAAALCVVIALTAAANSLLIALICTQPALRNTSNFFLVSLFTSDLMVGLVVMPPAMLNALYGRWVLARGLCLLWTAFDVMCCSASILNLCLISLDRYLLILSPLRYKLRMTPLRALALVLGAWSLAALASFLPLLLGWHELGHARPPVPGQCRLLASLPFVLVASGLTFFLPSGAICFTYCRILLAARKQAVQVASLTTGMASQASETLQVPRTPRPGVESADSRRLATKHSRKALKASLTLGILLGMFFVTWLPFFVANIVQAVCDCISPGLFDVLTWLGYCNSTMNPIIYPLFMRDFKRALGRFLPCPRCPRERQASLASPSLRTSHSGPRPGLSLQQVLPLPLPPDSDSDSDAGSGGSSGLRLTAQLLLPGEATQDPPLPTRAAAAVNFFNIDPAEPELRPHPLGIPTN

Compound: CCN(CC)c1nc2c(c(-c3ccc(C)cc3)n1)CCN(Cc1ccccc1)C2 [Example 25, (7-Benzyl-4-p-tolyl-5,6,7,8-tetrahydro-pyrido[3,4-d]pyrimidin-2-yl)-diethyl-amine]
- Ki [1]: 190 nM
- Ki [2]: 620 nM
- Ki (rat 5-HT7a receptor): > 10000 nM
- Ki [3]: > 10000 nM

Compound: CCN(CC)c1nc2c(c(-c3ccc(C#N)cc3)n1)CNCCC2 [Example 18, 4-(2-Diethylamino-6,7,8,9-tetrahydro-5H-1,3,6-triaza-benzocyclohepten-4-yl)-benzonitrile]
- Ki (rat 5-HT7a receptor): > 10000 nM

Compound: CCN(CC)c1nc2c(c(-c3ccc(C)cc3)n1)CNCCC2 [Example 16, Diethyl-(4-p-tolyl-6,7,8,9-tetrahydro-5H-1,3,6-triaza-benzocyclohepten-2-yl)-amine]
- Ki [1]: 50 nM
- Ki [2]: 320 nM
- Ki (rat 5-HT7a receptor): 500 nM
- Ki [3]: 630 nM

Compound: CCN(CC)c1nc2c(c(-c3ccc(OC)cc3)n1)CCN(Cc1ccccc1)C2 [Example 27, [7-Benzyl-4-(4-methoxy-phenyl)-5,6,7,8-tetrahydro-pyrido[3,4-d]pyrimidin-2-yl]-diethyl-amine]
- Ki [1]: 1700 nM
- Ki [2]: 660 nM
- Ki (rat 5-HT7a receptor): > 10000 nM
- Ki [3]: > 10000 nM

Compound: COc1ccc(-c2nc(N3CCCCCC3)nc3c2CCN(Cc2ccccc2)C3)cc1 [Example 35, 2-Azepan-1-yl-7-benzyl-4-(4-methoxy-phenyl)-5,6,7,8-tetrahydro-pyrido[3,4-d]pyrimidine]
- Ki [1]: > 10000 nM
- Ki [2]: 700 nM
- Ki (rat 5-HT7a receptor): > 10000 nM
- Ki [3]: > 10000 nM

Compound: CCN(CC)c1nc2c(c(-c3ccc(Cl)cc3)n1)CNCC2 [Example 46, [4-(4-Chloro-phenyl)-5,6,7,8-tetrahydro-pyrido[4,3-d]pyrimidin-2-yl]-diethyl-amine hydrochloride]
- Ki [1]: 30 nM
- Ki [2]: 200 nM
- Ki (rat 5-HT7a receptor): 100 nM
- Ki [3]: 250 nM

Compound: COc1ccc(-c2nc(N3CCCCCC3)nc3c2CCNC3)cc1 [Example 36, 2-Azepan-1-yl-4-(4-methoxy-phenyl)-5,6,7,8-tetrahydro-pyrido[3,4-d]pyrimidine]
- Ki [1]: 160 nM
- Ki [2]: 100 nM
- Ki (rat 5-HT7a receptor): 210 nM
- Ki [3]: 320 nM

Compound: Fc1ccc(-c2nc(N3CCCC3)nc3c2CNCC3)cc1 [Example 41, 4-(4-Fluoro-phenyl)-2-pyrrolidin-1-yl-5,6,7,8-tetrahydro-pyrido[4,3-d]pyrimidine hydrochloride]
- Ki [1]: 25 nM
- Ki [2]: 750 nM
- Ki (rat 5-HT7a receptor): > 10000 nM
- Ki [3]: 940 nM

Compound: Cc1ccc(-c2nc(N3CCCCCC3)nc3c2CCNC3)cc1 [Example 34, 2-Azepan-1-yl-4-p-tolyl-5,6,7,8-tetrahydro-pyrido[3,4-d]pyrimidine]
- Ki [1]: 18 nM
- Ki [2]: 40 nM
- Ki (rat 5-HT7a receptor): 90 nM
- Ki [3]: 270 nM

Compound: COc1ccc(-c2nc(N3CCCCC3)nc3c2CNCCC3)cc1 [Example 21, 4-(4-Methoxy-phenyl)-2-piperidin-1-yl-6,7,8,9-tetrahydro-5H-1,3,6-triaza-benzocycloheptene hydrochloride]
- Ki (rat 5-HT7a receptor): > 10000 nM

Compound: Cc1ccc(-c2nc(N3CCCCC3)nc3c2CNCCC3)cc1 [Example 19, 2-Piperidin-1-yl-4-p-tolyl-6,7,8,9-tetrahydro-5H-1,3,6-triaza-benzocycloheptene]
- Ki [1]: 1500 nM
- Ki [2]: 1000 nM
- Ki (rat 5-HT7a receptor): > 10000 nM
- Ki [3]: 3160 nM

Compound: CCN(CC)c1nc2c(c(-c3ccc(F)cc3)n1)CNCCC2 [Example 15, Diethyl-[4-(4-fluoro-phenyl)-6,7,8,9-tetrahydro-5H-1,3,6-triaza-benzocyclohepten-2-yl]-amine]
- Ki (rat 5-HT7a receptor): > 10000 nM

Compound: Clc1ccc(-c2nc(NCc3ccccc3)nc3c2CCNCC3)cc1 [Example 56, Benzyl-[4-(4-chloro-phenyl)-6,7,8,9-tetrahydro-5H-pyrimido[4,5-d]azepin-2-yl]-amine]
- Ki [1]: 1.4 nM
- Ki [2]: 45 nM
- Ki (rat 5-HT7a receptor): 9000 nM
- Ki [3]: 40 nM

Compound: CCN(CC)c1nc2c(c(-c3ccc(C#N)cc3)n1)CCN(Cc1ccccc1)C2 [Example 29, 4-(7-Benzyl-2-diethylamino-5,6,7,8-tetrahydro-pyrido[3,4-d]pyrimidin-4-yl)-benzonitrile]
- Ki [1]: 650 nM
- Ki [2]: 1100 nM
- Ki (rat 5-HT7a receptor): > 10000 nM
- Ki [3]: > 10000 nM

Compound: Cc1ccc(-c2nc(N3CCCC3)nc3c2CNCC3)cc1 [Example 47, 2-Pyrrolidin-1-yl-4-p-tolyl-5,6,7,8-tetrahydro-pyrido[4,3-d]pyrimidine]
- Ki [1]: 120 nM
- Ki [2]: 500 nM
- Ki (rat 5-HT7a receptor): > 10000 nM
- Ki [3]: 1600 nM

Compound: N#Cc1ccc(-c2nc(N3CCCCC3)nc3c2CNCCC3)cc1 [Example 22, 4-(2-Piperidin-1-yl-6,7,8,9-tetrahydro-5H-1,3,6-triaza-benzocyclohepten-4-yl)-benzonitrile hydrochloride]
- Ki [1]: > 10000 nM
- Ki [2]: 2510 nM
- Ki (rat 5-HT7a receptor): > 10000 nM
- Ki [3]: > 10000 nM

Compound: Cc1ccc(-c2nc(N3CCCCCC3)nc3c2CCN(Cc2ccccc2)C3)cc1 [Example 33, 2-Azepan-1-yl-7-benzyl-4-p-tolyl-5,6,7,8-tetrahydro-pyrido[3,4-d]pyrimidine]
- Ki [1]: 540 nM
- Ki [2]: 800 nM
- Ki (rat 5-HT7a receptor): > 10000 nM
- Ki [3]: 3200 nM

Compound: Cc1ccc(-c2nc(N3CCOC[C@@H]3C)nc3c2CCNCC3)cc1F [Example 97, 4-(3-fluoro-4-methylphenyl)-6,7,8,9-tetrahydro-2-[(3S)-3-methyl-4-morpholinyl]-5H-pyrimido[4,5-d]azepine]
- Ki [1]: 400 nM
- Ki [4]: 23 nM
- Ki [2]: 39 nM
- Ki [3]: 92 nM

Compound: Cc1ccc(-c2nc(N3CCCC3C)nc3c2CCNCC3)cc1 (centres unmarked) [Example 72, 6,7,8,9-tetrahydro-4-(4-methylphenyl)-2-(2-methyl-1-pyrrolidinyl)-5H-pyrimido[4,5-d]azepine]
- Ki [1]: 28 nM
- Ki [4]: 32 nM
- Ki [2]: 2 nM
- Ki [3]: 4 nM

Compound: C[C@@H]1CCC[C@H](C)N1c1nc2c(c(-c3ccc(Cl)c(Cl)c3)n1)CCNCC2 [Example 73, 4-(3,4-dichlorophenyl)-2-[(2R,6S)-2,6-dimethyl-1-piperidinyl]-6,7,8,9-tetrahydro-5H-pyrimido[4,5-d]azepine]
- Ki [1]: 170 nM
- Ki [4]: 62 nM
- Ki [2]: 7 nM
- Ki [3]: 38 nM

Compound: Cc1ccc(-c2nc(N3[C@H](C)CCC[C@@H]3C)nc3c2CCNCC3)cc1 [Example 71, 2-[(2R,6S)-2,6-dimethyl-1-piperidinyl]-6,7,8,9-tetrahydro-4-(4-methylphenyl)-5H-pyrimido[4,5-d]azepine]
- Ki [1]: 36 nM
- Ki [4]: 19 nM
- Ki [2]: 1 nM
- Ki [3]: 9 nM

Compound: CC(C)c1ccc(-c2nc(N3[C@H](C)CCC[C@@H]3C)nc3c2CCNCC3)cc1 [Example 91, 2-[(2R,6S)-2,6-dimethyl-1-piperidinyl]-6,7,8,9-tetrahydro-4-[4-(1-methylethyl)phenyl]-5H-pyrimido[4,5-d]azepine]
- Ki [1]: 160 nM
- Ki [4]: 41 nM
- Ki [2]: 6 nM
- Ki [3]: 45 nM

Compound: COc1ccc(-c2nc(N3CCCC3C)nc3c2CCNCC3)cc1 (centres unmarked) [Example 80, 6,7,8,9-tetrahydro-4-(4-methoxyphenyl)-2-(2-methyl-1-pyrrolidinyl)-5H-pyrimido[4,5-d]azepine]
- Ki [1]: 140 nM
- Ki [4]: 39 nM
- Ki [2]: 6 nM
- Ki [3]: 42 nM
